Tested on: T1, TF-Silα-Strep (silicatein-α, Silα)
T1 construct: trigger factor fused at N-terminus, Strep-tag II at C-terminus; recombinant, StrepTrap purified
Experiment: UV-VIS spectrophotometric silyl ether hydrolysis, net initial rates
Assay type: biochemical
Details: 10% v/v 1,4-dioxane, 50 mM Tris, 100 mM NaCl, pH 8.5
Excerpt: UV-VIS spectrophotometric silyl ether hydrolysis, net initial rates on TF-Silα-Strep (silicatein-α, Silα)

Compound | Km
Cc1cc([N+](=O)[O-])ccc1O[Si](C)(C)C(C)(C)C [compound 4, tert-Butyldimethyl(2-methyl-4-nitrophenoxy)silane] | 72.5 ± 15.3 µM
CC(C)[Si](Oc1ccc([N+](=O)[O-])cc1)(C(C)C)C(C)C [compound 3, 3] | 20.4 ± 8.13 µM
CC(C)(C)[Si](C)(C)Oc1ccc([N+](=O)[O-])cc1 [compound 1, tert-butyldimethyl(4-nitrophenoxy)silane] | 44.4 ± 11.9 µM
CC(C)C(C)(C)[Si](C)(C)Oc1ccc([N+](=O)[O-])cc1 [compound 2, 2] | 24.1 ± 5 µM
Cc1cc(O[Si](C)(C)C(C)(C)C)ccc1[N+](=O)[O-] [compound 5, tert-Butyldimethyl(3-methyl-4-nitrophenoxy)silane] | 34.6 ± 4.11 µM
